The values below are quoted from earlier work in Sander's compilation of Henry's law constants.

“And” between values parts separate entries of the source, which are not always exact repeats. Identical values can stand only once. Some results are limits rather than exact numbers.

The data set is described as follows: Henry solubility constant Hcp at 298.15 K (mol/(m3 Pa)). The conditions noted are these: cited value.
Where [1] appears, read: reference: Barcelo and Hennion (1997).
Where [2] appears, read: reference: Meylan and Howard (1991).
Setting [3] is: reference: Mackay et al. (1995).
[4] abbreviates: reference: Burkholder et al. (2015).
The mark [5] stands for this setting: reference: Burkholder et al. (2019).
Setting [6] is: reference: Sander et al. (2011).
Setting [7] is: reference: Fogg and Sangster (2003).
Where [8] appears, read: reference: Hine and Weimar (1965).
Setting [9] is: reference: Sander et al. (2006).

Take `ClC1=C(Cl)C2(Cl)C3C(Cl)C=CC3C1(Cl)C2(Cl)Cl` (stereo not given) [heptachlor]: the “Henry solubility constant Hcp” value was 8.8e-05 under setting [1], 0.0043 (reference: McCarty (1980)) and 0.0067 under setting [2].
For `ClC1=C(Cl)[C@]2(Cl)[C@H]3[C@H]([C@@H]4C=C[C@H]3C4)[C@@]1(Cl)C2(Cl)Cl` [aldrin], the “Henry solubility constant Hcp” value by setting is: under setting [1], 0.00011; under setting [2], 0.02.
In the case of `CCCOC(=O)CCC` [propyl butanoate], the “Henry solubility constant Hcp” value (reference: Brockbank (2013)) is 0.018.
`CC(C)SC(C)C` [di-(2-propyl)-sulfide]: the “Henry solubility constant Hcp” value (reference: Brockbank (2013)) was 0.0028.
`CN(C)C(=O)Nc1ccc(Cl)c(Cl)c1` [diuron]: the “Henry solubility constant Hcp” value under setting [1] was 8.2.
In the case of `COC(=O)c1ccccc1C(=O)OC` [dimethyl phthalate], the “Henry solubility constant Hcp” value is, setting by setting: (reference: Brockbank (2013)) 51; (reference: Goldstein (1982)) 29 and 30; (reference: McCarty (1980)) 23.
As for `c1ccc(Oc2ccccc2)cc1` [diphenyl ether], the “Henry solubility constant Hcp” value (reference: Brockbank (2013)) is 0.019.
On to `O=[N+]([O-])c1ccccc1` [nitrobenzene], for which the “Henry solubility constant Hcp” value is, setting by setting: (reference: Brockbank (2013)) 0.47; (reference: Goldstein (1982)) 0.47; under setting [3], 0.75.
On to `CCCCCCCCC=O` [nonanal], for which the “Henry solubility constant Hcp” value (reference: Brockbank (2013)) is 0.011.
Consider `CCCC(C)CC` (stereo not given) [3-methylhexane], for which the “Henry solubility constant Hcp” value (reference: Brockbank (2013)) was 3.2e-06.
On to `CC(=O)C(C)(C)C` [3,3-dimethyl-2-butanone], for which the “Henry solubility constant Hcp” value (reference: Brockbank (2013)) was 0.043.
Regarding `CCC(=O)CC` [3-pentanone], the “Henry solubility constant Hcp” value was 0.089 (reference: Brockbank (2013)), 0.13 (reference: Cabani et al. (1981)) and 0.11 (reference: Howard (1993)).
For the molecule `Clc1ccc(C(c2ccc(Cl)cc2)C(Cl)(Cl)Cl)cc1` [1,1,1-trichloro-2,2-bis-(4-chlorophenyl)-ethane], under setting [1], the “Henry solubility constant Hcp” value is 0.0042.
As to `NC1CCCCC1` [cyclohexanamine], under “reference: Brockbank (2013)”, the “Henry solubility constant Hcp” value was 2.2.
For the molecule `O=C(O)C(Cl)(Cl)Cl` [trichloroethanoic acid], the “Henry solubility constant Hcp” value runs as follows: under setting [4], 730; under setting [5], 730; under setting [6], 730.
Regarding `CC(=O)OCCC(C)C` [3-methylbutyl ethanoate], the “Henry solubility constant Hcp” value is 0.021 (reference: Brockbank (2013)), 0.024 (reference: Goldstein (1982)) and 0.017 (reference: Meynier et al. (2003)).
As for `C1CCCCCC1` [cycloheptane], the “Henry solubility constant Hcp” value (reference: Brockbank (2013)) is 6.7e-05.
On to `ClCCCCl` [1,3-dichloropropane], for which the “Henry solubility constant Hcp” value is, setting by setting: (reference: Brockbank (2013)) 0.012; under setting [4], 0.01; under setting [5], 0.01.
Take `CC(C)(C)OC=O` [(1,1-dimethylethyl)-methanoate]: the “Henry solubility constant Hcp” value (reference: Brockbank (2013)) was 0.014.
Consider `CCCCN(CC)C(=O)SCCC` [pebulate], for which the “Henry solubility constant Hcp” value under setting [1] was 0.00084.
In the case of `CCC1CCCCC1` [ethylcyclohexane], the “Henry solubility constant Hcp” value (reference: Brockbank (2013)) was 2.1e-05.
Turning to `[Hg+2].[OH-].[OH-]` [mercury dihydroxide], the “Henry solubility constant Hcp” value runs as follows: (reference: Lindqvist and Rodhe (1985)) 130; (reference: WHO (1990)) 130.
As to `O=C1CCCCC1` [cyclohexanone], the “Henry solubility constant Hcp” value (reference: Brockbank (2013)) is 1.5.
As for `CCC(C)CC` [3-methylpentane], where the note is “reference: Brockbank (2013)”, the “Henry solubility constant Hcp” value was 5.9e-06.
For the molecule `Brc1ccc(Br)cc1` [1,4-dibromobenzene], for the setting “reference: Kuramochi et al. (2004)”, the “Henry solubility constant Hcp” value is 0.011.
For `ClCC(Cl)(Cl)Cl` [1,1,1,2-tetrachloroethane], the “Henry solubility constant Hcp” value by setting is: (reference: Brockbank (2013)) 0.0042; under setting [4], 0.0042; under setting [5], 0.0042.
`CCSC(=O)N(CC(C)C)CC(C)C` [butylate]: the “Henry solubility constant Hcp” value under setting [1] was 0.018.
`CCOC(=O)CC(C)C` [ethyl 3-methylbutanoate]: the “Henry solubility constant Hcp” value (reference: Brockbank (2013)) was 0.014.
With `O=NCl` [nitrosyl chloride], the “Henry solubility constant Hcp” value was > 0.00049 under setting [4] and > 0.00049 under setting [5].
Consider `Cc1cccc(C)n1` [2,6-dimethylpyridine], for which, where the note is “reference: Brockbank (2013)”, the “Henry solubility constant Hcp” value was 0.92.
For the molecule `CCCCCCOC(=O)c1ccccc1C(=O)OCCCCCC` [dihexyl phthalate], the “Henry solubility constant Hcp” value (reference: Brockbank (2013)) is 8.3.
For `[Xe]` [xenon], the “Henry solubility constant Hcp” value (reference: Clever (1979b)) was 4.3e-05.
Regarding `CC(C)CCC(C)C` [2,5-dimethylhexane], where the note is “reference: Brockbank (2013)”, the “Henry solubility constant Hcp” value was 3.1e-06.
For `COc1c(Cl)ccc(Cl)c1C(=O)O` [dicamba], the “Henry solubility constant Hcp” value under setting [1] was 82.
Turning to `CC#N` [ethanenitrile], the “Henry solubility constant Hcp” value is 0.47 (reference: Arijs and Brasseur (1986)); 0.49 (reference: Brockbank (2013)); 0.52 under setting [4]; 0.52 under setting [5]; 0.5 under setting [7]; 0.29 (reference: Gaffney and Senum (1984)). Besides, the “Henry solubility constant Hcp” value reads like this: under setting [8], 0.29; (reference: Plyasunov et al. (2006)) 0.38; under setting [9], 0.52; under setting [6], 0.52.
In the case of `CCOP(=S)(OCC)SCCSCC` [disulfoton], the “Henry solubility constant Hcp” value was 0.045 under setting [1] and 11 (reference: Muir et al. (2004)).
Take `O=NO` [nitrous acid]: where the note is “reference: Schwartz and White (1981)”, the “Henry solubility constant Hcp” value is 0.48.
Regarding `CC(C)O` [2-propanol], the “Henry solubility constant Hcp” value was 1.2 (reference: Brockbank (2013)); 1.2 under setting [4]; 1.2 under setting [5]; 1.2 under setting [7]; 1.7 under setting [8]; 1.3 under setting [9]. Moreover, under setting [6], the “Henry solubility constant Hcp” value is 1.3.
As for `CC1=CC(=O)CC(C)(C)C1` [3,5,5-trimethyl-2-cyclohexen-1-one], for the setting “reference: Goldstein (1982)”, the “Henry solubility constant Hcp” value was 1.7.
As for `CCNc1nc(Cl)nc(NC(C)(C)C#N)n1` [cyanazine], the “Henry solubility constant Hcp” value under setting [1] was 33000.
`ClC(Cl)=C(Cl)Cl` [tetrachloroethene]: the “Henry solubility constant Hcp” value reads like this: (reference: Brockbank (2013)) 0.00056; under setting [4], 0.00055; under setting [5], 0.00055; (reference: Dilling (1977)) 0.00081; (reference: Dilling et al. (1975)) 0.00081; under setting [7], 0.0006. Also, the “Henry solubility constant Hcp” value (reference: Goldstein (1982)) is 0.00036.
Regarding `CCOP(=O)(SC(C)CC)N1CCSC1=O` (stereo not given) [fosthiazate-1], the “Henry solubility constant Hcp” value (reference: MacBean (2012b)) was 75.
Consider `CC(C)N(C(=O)SCC(Cl)=C(Cl)Cl)C(C)C` [triallate], for which the “Henry solubility constant Hcp” value under setting [1] was 0.01.
In the case of `CC(=O)CF` [1-fluoro-2-propanone], the “Henry solubility constant Hcp” value by setting is: under setting [4], 0.46; under setting [5], 0.46.
Regarding `Cc1nnc(-c2ccccc2)c(=O)n1N` [metamitron], the “Henry solubility constant Hcp” value under setting [1] was 1e+06.
Turning to `CCOC(C)(C)CC` [2-ethoxy-2-methylbutane], for the setting “reference: Brockbank (2013)”, the “Henry solubility constant Hcp” value is 0.005.
Consider `C=CCC#N` [3-butenenitrile], for which the “Henry solubility constant Hcp” value (reference: Brockbank (2013)) was 0.2.
For `C=CC#N` [2-propenenitrile], the “Henry solubility constant Hcp” value was 0.1 (reference: Brockbank (2013)), 0.11 (reference: Goldstein (1982)) and 0.11 under setting [3].
For `FC(F)F` [trifluoromethane], the “Henry solubility constant Hcp” value under setting [4] was 0.00013, the “Henry solubility constant Hcp” value under setting [5] was 0.00013 and the “Henry solubility constant Hcp” value under setting [6] is 0.00013.
